Like-named read-outs stand apart in the source and are kept apart here.
Legend:
human urokinase (μUK) = target: T1, human urokinase (μUK) (Homo sapiens, UniProt P00749, C299A/N322Q); test: Urokinase inhibition constants by S-2444 chromogenic activity; type: biochemical
T1 construct: μUK (UK amino acids Ile^159-Lys^404 that contain Ala^279Gln^302); made in house; host or cells: baculovirus-infected High-Five insect cells or Pichia pastoris GS115 (secreted)
Method: Assays were completed at both pH 6.5 (0.1 M NaPO4) and 7.4 (50 mM Tris).

μUK = μUK (Homo sapiens, UniProt P00749, C299A/N322Q); details: for binding at the urokinase active site seen in Fo-Fc electron density map: crystal soaked in mixture of 6 to 7 compounds, 3.3 to 5.2 mM each, compound 31 soaked individually
[1] = Oral bioavailability in the rat; details: in vivo, 10 mg/kg dose
VanX = VanX (Enterococcus faecium, UniProt Q06241); test: CrystaLEAD crystallographic screening of VanX crystals; details: crystals soaked in mixtures of 7-10 compounds
VanX, sequence (Q06241 whole entry): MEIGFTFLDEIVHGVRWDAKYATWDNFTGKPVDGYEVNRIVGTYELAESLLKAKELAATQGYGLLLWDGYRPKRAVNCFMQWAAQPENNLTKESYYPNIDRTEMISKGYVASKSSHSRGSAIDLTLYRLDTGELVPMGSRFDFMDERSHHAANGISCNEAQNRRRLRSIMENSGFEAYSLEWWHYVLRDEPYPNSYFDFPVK

ErmC′ = target: T2, ErmC′ (Bacillus subtilis, UniProt P13956); test: CrystaLEAD crystallographic screening of ErmC′ crystals; type: binding; details: adenosine library, mixtures of 8-9 compounds
T2 construct: made in house; host or cells: E. coli BL21(DE3)/pLysS with pTERM31 (pET24+ derivative)
T2 sequence (P13956 whole entry): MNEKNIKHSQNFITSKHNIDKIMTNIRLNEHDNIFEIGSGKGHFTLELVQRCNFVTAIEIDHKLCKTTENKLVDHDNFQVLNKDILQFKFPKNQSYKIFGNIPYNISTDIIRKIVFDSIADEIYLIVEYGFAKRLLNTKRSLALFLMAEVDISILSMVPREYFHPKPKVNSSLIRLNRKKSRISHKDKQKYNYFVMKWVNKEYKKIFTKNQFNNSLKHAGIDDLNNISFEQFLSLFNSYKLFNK
Excerpt: The adenosine library consisted of 59 compounds. The library was divided into 7 mixtures of 8-9 shape-diverse compounds and screened by the CrystaLEAD™ method. […] Equal volumes of each compound were mixed to assemble the mixture of […].
Typical usable data were 80-90% complete at 3.4-3.6 Å resolution with merging R-factors of 7-16%.

[2] = pH 6.5 (0.1 M NaPO4), S-2444 substrate, read-out: Ki (pH 6.5)
[3] = pH 7.4 (50 mM Tris), S-2444 substrate, read-out: Ki (pH 7.4)

| SMILES | binding at the urokinase active site seen in Fo-Fc electron density map (μUK) | pKa (pKa of CrystaLEAD hits) | binding at the VanX active site seen in electron density map (VanX) | also measured |
| --- | --- | --- | --- | --- |
| Cc1nc(N)ccc1Br [Compound 5] | binder | 6 |  | Ki (human urokinase (μUK); [2]): > 500 µM; Ki (human urokinase (μUK); [3]): > 500 µM |
| Nc1ccc2cccc(O)c2n1 [Compound 19, 2-amino-8-hydroxyquinoline] | bound | 7.3 |  | Ki (human urokinase (μUK); Ki (pH 7.4), pH 7.4 (50 mM Tris), S-2444 substrate): 137 µM; Ki (human urokinase (μUK); Ki at pH 6.5, pH 6.5, restated in Example 3): 56 µM; binding at the urokinase active site seen in electron density map, 100 compound mixture (μUK; mixture of 100 compounds spiked with compound 19 at 180 μM, 1% DMSO, 4 hours 15 minutes soak): positive hit |
| Nc1ccc2c(c1)CC=N2 [Compound 22, 5-aminoindole] | found to bind | 6 |  | Ki (human urokinase (μUK); [2]): 200 µM; Ki (human urokinase (μUK); [3]): > 500 µM |
| Cc1ccc(N)nc1 [Compound 31] | found to bind | 7 |  | Ki (human urokinase (μUK); Ki (pH 6.5)): > 500 µM; Ki (human urokinase (μUK); Ki (pH 7.4)): > 500 µM |
| Nc1ccc2cccc(Nc3ncccn3)c2n1 [Compound 35, 8-aminopyrimidinyl-2-aminoquinoline] |  |  |  | bioavailability [1]: 30 to 40% |
| O=C(O)C1CCCC1 [Compound 36] |  |  | bound |  |
| O=C(O)CCC1CCCC1 [Compound 37] |  |  | found to bind |  |
| O=C(O)C(=O)CS [Compound 39] |  |  | bound |  |
| N[C@@H](CS)C(=O)O [Compound 41] |  |  | binding |  |
| OCC1OC(n2cnc3c(NCc4ccccc4)ncnc32)C(O)C1O (stereo not drawn) [Compound 44] |  |  |  | binding to ErmC′ seen in electron density map (ErmC′): hits |
| OCC1OC(n2cnc3c(NC4CCCCC4)ncnc32)C(O)C1O (stereo not drawn) [Compound 45] |  |  |  | binding to ErmC′ seen in electron density map (ErmC′): hits |

Reference: patent US20040219607A1, “Ligand screening and design by X-ray crystallography” (priority 1998, published 2004)
